# “Also recorded” adds a separate entry of the source.
# What was measured:
# [1] = Pharmacokinetic study after i.v. administration in rats (online SPE HPLC of plasma, two-compartment model); format: in vivo, male Wistar rats; details: for t1/2 (biological half-life) / K12 (rate constant of transfer from the peripheral compartment into the central compartment) / K21 (rate constant of transfer from the central compartment into the peripheral compartment) / half-life / C0 / clearance / k el / Vd: i.v. bolus, 20 mg/kg; for t1/2 (biological half-life) / half-life / C0 / clearance / k el / Vd: plasma; for K12 (rate constant of transfer from the peripheral compartment into the central compartment) / K21 (rate constant of transfer from the central compartment into the peripheral compartment) / C0 / clearance / k el / Vd: two-compartment model; for half-life / C0 / clearance / k el / Vd: male, Wistar, rat, iv; for half-life: read-out: t1/2 (biological half-life) (converted); for C0: read-out: C0 (initial plasma concentration); for clearance: read-out: Cla (clearance rate of the central compartment) (converted); for k el: read-out: Kel (rate constant of elimination from the central compartment) (converted); for Vd: read-out: Vc (volume of distribution of the central compartment)
# Experimental: Confirmation of calycopterin, xanthomicrol and circimaritin identity was carried out using HPLC analysis of purified compound compared to the material obtained from previous work and also IR spectroscopy. A HPLC method with online solid phase extraction was developed for the analysis of xanthomicrol and calycopterin in biological fluids (Fig. 1) using circimaritin as internal standard (IS). 100 μL of plasma and 10 μL of 500 μg/mL IS were mixed in a 2 mL microcentrifuge tube. 40 μL of 10 mg/mL ZnSO4 was added to the tube and the content was mixed. After addition of 200 μL acetonitrile, the tube was placed in an orbital shaker for 10 min. The samples were subsequently centrifuged at 14000 g for 10 min the supernatant was subjected to online extraction/HPLC analysis as follows:
# At the start of every run, the sample injection valve and the sample extraction valve were switched to load position (Fig. 1). 250 μL of sample was injected into the sample loop of the sample injection valve. The valve was switched to the inject position which diverted the flow from the online SPE (solid phase extraction) solvent delivery pump (500 μL/min) through the sample loop which in turned carried the sample onto the online SPE column (3×15mm, ODS-2, 5 μm). After 2 min, the sample extraction valve was switched to inject position. This allowed the mobile phase from the analysis solvent delivery pump (1 mL/min) to wash any material retained by the online SPE system, onto the analytical column (4.6×150mm, ODS-2, 5 μm, Tracer Excell, Technochroma, Spain) for separation and measurement. The mobile phase pumped by online SPE solvent delivery pump consisted of acetonitrile:water (35:65) and the mobile phase pumped by the analysis solvent delivery pump was composed of acetonitrile:methanol:water:triethylamine (37:24:38.5:0.5). 16 min after the start of analysis, the mobile phase pumped by the analysis solvent delivery pump was switched to methanol:tetrahydrofurane:dichloromethane (80:10:10) for 3 min. This allowed for highly non-polar compounds retained by the SPE and analytical column to be flushed. Detection was at 263 nm.
# All procedures involving animals were carried out after the approval and under the supervision of the Ethics Committee for Animal Expreiments of Iran University for Medical Sciences. In order to be able to withdraw blood samples at predefined time points during pharmacokinetic studies, femoral vein of male Wistar rats, in the weight range of 280 to 300 g, were catheterized, under anaesthesia, using the method described by Jespersen et al.. After the placement of the catheter, the animals were allowed to recover for 24 h, during which time, the rats were checked for signs of bleeding and the catheters were checked for patency.
# Xanthomicrol or calycopterin was dissolved in 200 μL of dimethylsulfoxide (DMSO) and injected into the dorsal tail vein of rats. Just before drug injection (time zero) and at 1, 5, 10, 20, 60, 120 and 240 min after drug injection, 300 μL of blood were withdrawn via the femoral vein which had been catheterized previously. In order to prevent phlebotomy induced hypovolemia, 200 μL normal saline was injected via the femoral catheter after each blood sample withdrawal. Blood samples were centrifuged at 4 °C for 10 min at 4000 g. Plasma was collected and stored frozen at -80 °C until needed.
# Pharmacokinetic parameters obtained from constructing the residual concentration verses time curve for these two-compartmental models are presented in Table 3. Rate constants for transfer between the central and peripheral compartments (K21and K12) and also the elimination process (Kel) were also calculated.
# [2] = Predicted plasma concentration-time profiles from the two compartment models; details: rat, single I.V. dose of 30 mg/kg, predicted from two compartment model
# Experimental: Our aim in this work was to find doses of these flavonoids which could produce such plasma levels over extended periods. […] The models generated, were used to predict the plasma concentration-time profiles for different doses of calycopterin and xanthomicrol (Fig. 7). After a single I.V. dose of 30 mg/kg, xanthomicrol plasma concentration would be greater than 500 ng/mL for more than 6 h while calycopterin’s plasma concentration would dip below 500 ng/mL 30 min after administration.
# Fig. 7 Predicted plasma calycopterin (●) and xanthomicrol (○) concentration-time profiles after a single IV bolus dose of 30 mg/kg or either compound in the rat. The values were calculated based upon the two compartment models developed in this work
# [3] = Solubility in water based solvent systems (vehicle selection); format: physicochemical
# Experimental: A number of solvents which were able to dissolve xanthomicrol and calycopterin were investigated as vehicles for the delivery of these compounds into the blood stream. DMSO was chosen as it is relatively benign in terms of toxicological effects (a number of drug formulations or medical devices containing DMSO are marketed e.g., RIMSO-50 from Bioniche Pharma, USA and Dolicur from Schering, Germany). Also, the volume required as vehicle (200 μL) was small compared to total blood volume in rat (about 20 mL) and would be unlikely to have an appreciable effect on pharmacokinetics of flavonoids being studied.
# HUVEC cell = test system: HUVEC cell; design: method as in PMID 24895220; details: at 500 ng/mL; cited from earlier work
# Balb/C mice [4] = assay: Toxicological study in mice: serum creatinin, ALT, AST (kidney and liver functions); format: in vivo; details: for Serum ALT / Serum AST / Serum Creatinin: mice, I.P.
# Experimental: (§1) Toxicity studies were carried out using Balb/C mice in the 25-30 g weight range. Drug administration was via the I.P. methoud. Animals were assigned to five groups of three: one-Control groups which received no treatment, two-Vehicle control which received 60 μL of DMSO (dimethyl sulfoxide) for 6 days, 3- Test group one which received 30 mg/kg body weight xanthomicrol in 60 μL of DMSO per day, 4- Test group two which received 40 mg/kg body weight xanthomicrol on 60 μL of DMSO per day and 5- Test group three which received 50 mg/kg body weight xanthomicrol on 60 μL of DMSO per day. The animals were weighed and examined for changes in skin tone, signs of fur loss and changes in bowl function. On the seventh day, the animals were anaesthetized under an atmosphere of chloroform. Once fully anaesthetized, blood samples were collected from the heart and the animals were killed by cervical dislocation. Serum samples were analyzed for hepatic enzymes AST and ALT [16] and also for creatinin levels. Kidneys, liver, lung, intestines and stomach were removed from animals and placed in 10 % formalin solution for subsequent paraffin embedding, sectioning, staining and histological studies. Tissue sections were examined for fibrotic, inflammatory and vascular changes by a qualified pathologist.
# Balb/C mice [5] = assay: Toxicological study in mice: tissue histology; format: in vivo
# Experimental: as §1
# Balb/C mice [6] = assay: Toxicological study in mice: body weight, mortality, behaviour, overt toxicity; format: in vivo; details: for toxic effects overall (behavioral, histological, biochemical): repeated administrations at administered doses (30, 40 and 50 mg/kg/day for six days)
# Experimental: as §1
# [7] = mice, 30, 40 or 50 mg/kg body weight
# [8] = Test group 1 (30 mg/kg per day, I.P.), Lung/Liver/Heart/ Kidney, single animal
# [9] = Test group 1 (30 mg/kg per day, I.P.), Small intestine/ Large intestine/ Gastric wall, single animals
# [10] = Test group 2 (40 mg/kg per day, I.P.), Lung/Liver/Heart/ Kidney, single animals, listed as xanthimcrol, 40 mg/kg/day
# [11] = Test group 2 (40 mg/kg per day, I.P.), Small intestine/ Large intestine/ Gastric wall, single animal
# [12] = Test group 3 (50 mg/kg per day, I.P.), Lung/Liver/Heart/ Kidney, single animals
# [13] = Test group 3 (50 mg/kg per day, I.P.), Lung/Liver/Heart/ Kidney, single animals, listed as xanthimcrol, 50 mg/kg/day
# [14] = Test group 3 (50 mg/kg per day, I.P.), Small intestine/ Large intestine/ Gastric wall, single animal
# [15] = mice, 30, 40 and 50 mg/kg/day for six days
smiles,measurement,setting,value
"COc1c(OC)c(O)c2c(=O)c(OC)c(-c3ccc(O)cc3)oc2c1OC [Calycopterin, calycopterin]",volume of distribution of calycopterin relative to xanthomicrol,[1]; i.v.,about 8 times
same,t1/2 (biological half-life),[1],3.8 h
same,K12 (rate constant of transfer from the peripheral compartment into the central compartment),[1],1.39 h⁻¹
same,K21 (rate constant of transfer from the central compartment into the peripheral compartment),[1],0.52 h⁻¹
same,half-life,[1],~240 min
same,C0,[1],312 ng/mL
same,clearance,[1],280 mL/min
same,k el,[1],7.22e-05 s⁻¹
same,Vd,[1],63.9 L
same,time after administration at which plasma concentration would dip below 500 ng/mL,[2],30 min
same,solubility in water based solvent systems,[3],do not dissolve in water based solvent systems
same,effect on capillary-like tube formation,HUVEC cell,inhibited capillary-like tube formation
"COc1c(OC)c(O)c2c(=O)cc(-c3ccc(O)cc3)oc2c1OC [Xanthomicrol, xanthomicrol]",t1/2 (biological half-life),[1],4.2 h
same,K12 (rate constant of transfer from the peripheral compartment into the central compartment),[1],1.88 h⁻¹
same,K21 (rate constant of transfer from the central compartment into the peripheral compartment),[1],0.46 h⁻¹
same,half-life,[1],~240 min
same,C0,[1],2340 ng/mL
same,clearance,[1],30 mL/min
same,k el,[1],5.83e-05 s⁻¹
same,Vd,[1],8.5 L
same,time for which plasma concentration would be greater than 500 ng/mL,[2],more than 6 h
same,"difference in alanine transaminase (ALT) activity between control, vehicle and test groups",Balb/C mice [4]; [7],no significant differences
same,"difference in aspartic acid transaminase (AST) activity between control, vehicle and test groups",Balb/C mice [4]; [7],no significant differences; also recorded: not significantly different
same,"difference in serum creatinin content between control, vehicle and test groups",Balb/C mice [4]; [7],no significant differences
same,Serum ALT,Balb/C mice [4]; 30 mg/kg per day for 6 days,38 ± 8.8 IU/L
same,Serum AST,Balb/C mice [4]; 30 mg/kg per day for 6 days,138 ± 37 IU/L
same,Serum ALT,Balb/C mice [4]; 40 mg/kg per day for 6 days,22 ± 19 IU/L
same,Serum AST,Balb/C mice [4]; 40 mg/kg per day for 6 days,130 ± 49 IU/L
same,Serum Creatinin,Balb/C mice [4]; 40 mg/kg per day for 6 days,0.35 ± 0.036 mg/dL
same,Serum ALT,Balb/C mice [4]; 50 mg/kg per day for 6 days,30 ± 3.0 IU/L
same,Serum AST,Balb/C mice [4]; 50 mg/kg per day for 6 days,316 ± 163 IU/L
same,Serum Creatinin,Balb/C mice [4]; 50 mg/kg per day for 6 days,0.39 ± 0.02 mg/dL
same,Fibrosin,Balb/C mice [5]; [8],Absent
same,Inflammation structural change,Balb/C mice [5]; [8],Absent
same,Notes (histology),Balb/C mice [5]; [8],Normal
same,Vascular change,Balb/C mice [5]; [8],None
same,Fibrosin,Balb/C mice [5]; [9],Absent
same,Inflammation structural change,Balb/C mice [5]; [9],Absent
same,Notes (histology),Balb/C mice [5]; [9],Normal
same,Vascular change,Balb/C mice [5]; [9],None
same,Fibrosin,"Balb/C mice [5]; Test group 2 (40 mg/kg per day, I.P.), Lung/Liver/Heart/ Kidney, single animals",Absent
same,Inflammation structural change,Balb/C mice [5]; [10],"Lymphocyte infilteration in lung sample, Subcapsular inflammation in liver sample; also recorded: Focal inflammation in lung tissue"
same,Notes (histology),Balb/C mice [5]; [10],Normal; also recorded: Increased type II pneumocytes
same,Vascular change,Balb/C mice [5]; [10],Hypermic; also recorded: Increased vascularization in lung sample
same,Fibrosin,Balb/C mice [5]; [11],Absent
same,Inflammation structural change,Balb/C mice [5]; [11],Absent
same,Notes (histology),Balb/C mice [5]; [11],Normal
same,Vascular change,Balb/C mice [5]; [11],None
same,Fibrosin,Balb/C mice [5]; [12],Absent
same,Vascular change,Balb/C mice [5]; [12],None
same,Inflammation structural change,Balb/C mice [5]; [13],Focal inflammation in lung sample; also recorded: Absent
same,Notes (histology),Balb/C mice [5]; [13],Increased type II pneumocytes; also recorded: Normal
same,Fibrosin,Balb/C mice [5]; [14],Absent
same,Inflammation structural change,Balb/C mice [5]; [14],Absent
same,Vascular change,Balb/C mice [5]; [14],None
same,Histological examination of tissue samples compared to the control group,Balb/C mice [5]; [15],absence of significant pathological change; also recorded: unable to find xenobiotic induced damage to vital organs
same,change in animal weights compared to control group,Balb/C mice [6]; [15],no change in animal weights
same,motor or behavioral abnormalities,Balb/C mice [6]; [15],no animal showed any signs of motor or behavioral abnormalities
same,"toxic effects overall (behavioral, histological, biochemical)",Balb/C mice [6]; mice,did not appear to have toxic effects
same,"toxic effects overall (behavioral, histological, biochemical)","Balb/C mice [6]; mice, listed as xanthomicrol","failed to show any behavioral, histological and biochemical adverse effects"
same,weight of animals,"Balb/C mice [6]; mice, xanthomicrol groups, control group 27.1 g ± 1.2",27.7 ± 1.7 g
same,acute toxic effects,"Balb/C mice [6]; mouse, in vivo",appears not to have acute toxic effects
same,solubility in water based solvent systems,[3],do not dissolve in water based solvent systems
same,effect on capillary-like tube formation,HUVEC cell,inhibited capillary-like tube formation
